{
  "source": "patent US10239871B2",
  "about": "“Compounds and methods for regulating integrins” (ADHAERE PHARMACEUTICALS, INC., priority 2012, dated 2019)",
  "key": {"[1]": {"tested_on": "RAW 264.7 macrophage cells", "assay": "Wound healing assay (macrophage migration)", "assay_type": "cell-based, murine", "details": "LPS 100 ng/mL or PMA 100 nM vs unstimulated (DMSO), 48 hours", "experimental": "Murine RAW 264.7 macrophage cells were grown in DMEM 10% FBS medium in T75 flasks to 70% confluence. The cells were detached by trypsin treatment for 10 minutes at 37° C. and evenly reseeded in 24 well plates and allowed to attain >70% confluency. A scratch was introduced horizontally across the well using 200 µL tip applying even force throughout the etching and holding the tip at approximately an 80 degree angle. The wells were subsequently washed and fresh medium containing various treatment groups was introduced. The wound was imaged using 10× objective. The cells were allowed to grow for 48 hours and the wound was reimaged at the same field after 48 hours. The average extent of wound closure was evaluated by measuring the width of the wound. The area healed was analyzed using ImageJ software and is expressed as percentage healing after 48 hours.\nFor FIG. 4B, RAW 264.7 cells were plated in 24-well tissue culture plates (2×10^6 cells/well) and allowed to adhere in complete media for 12 hours. […] Images of the cells in culture were obtained immediately prior to (0 hours) and after the completion of the experiment (48 hours) using an inverted phase contrast microscope attached to a video camera.\nRepresentative data shown here are from a triplicate well experiment from one of at least two to three independent experiments. **p<0.001, ***p<0.0001."}, "Human macrophages": {"tested_on": "Human macrophages", "assay": "TNF-α release from human macrophages", "assay_type": "cell-based", "details": "n=14"}, "Cl66 cells": {"tested_on": "Cl66 cells", "assay": "Orthotopic Cl66 mammary adenocarcinoma tumor growth, with or without Taxol", "assay_type": "in vivo", "details": "BALB/c mice, vs vehicle", "protocol": "The syngeneic murine mammary adenocarcinoma cell line Cl66 (moderately metastatic and is related to the highly metastatic 4T1 cell line) was orthotopically introduced in Balb/c animals, by injecting ˜5×10^5 Cl66 cells under the left mammary fat pad of WT BALB/c mice (approx. 8-10 weeks old). The tumor size was measured using calipers every other day until the end of the experiment (approx. 5 weeks). 7-days post implantation, the tumors in all animals became palpable, with an average size of ˜100 mm3. At that time, animals in each group were treated as described. LA1 was administered daily for the first two weeks and then every other day until the end of the experiment. Animals in Group 1 received Saline injections, as control. […] It can also enhance the efficacy of traditional chemotherapy in various cancers, including breast cancer, to produce a synergistic response to the treatment. It can also reduce the incidence and the size of metastases."}, "patients": {"tested_on": "patients", "details": "cited from earlier work"}, "CD11b/CD18": {"target": "CD11b/CD18 (Homo sapiens, UniProt P11215)", "assay": "Immunofluorescence microscopy of CD11b/CD18 clustering on K562 WT cells", "assay_type": "cell-based", "set-up": "K562 cells stably transfected with plasmid encoding wild-type integrin CD11b/CD18; expressed in transfected cells", "details": "presence of fibrinogen 50 μg/mL", "protocol": "To visualize changes upon ligand binding, fibrinogen (50 μg/mL) was also added to the cell suspension media in a second set of incubations. The cells were fixed in suspension and incubated with mAb 184, which is specific for CD11b/CD18, followed by Alexa Fluor 488-conjugated goat antibody against mouse Ig (Sigma). Fluorescence images were recorded with a Leica DMI16000 deconvolution microscope using an HCX APO 40×/0.75 DRY objective with a DCF360FX camera and with Leica LAS-AF software. A 3-dimensional representation of CD11b/CD18 fluorescence intensity and the analysis of the number of CD11b/CD18 clusters per cell was performed using ImageJ software as described. Clustering determination was carried out by counting individual fluorescent peaks that were projected from the basal to the apical side of the cell and were at least 50% above the base line levels. The images presented are representative of at least 20 cells analyzed for each condition from at least three independent experiments.\nTherefore, to investigate, a combination of confocal microscopy (to study clustering) and western blotting assays (to study intracellular signaling) using K562 WT cells were used. First, CD11b/CD18 cell-surface distribution and macro clustering was studied under various conditions using confocal microscopy. K562 WT cells in suspension were incubated with various agonists, fixed with paraformaldehyde and the surface expressed CD11b/CD18 was fluorescently stained with anti-CD11b/CD18 mAb 1B4. […] The fluorescence images shown are representative of three independent experiments. […] Also shown below each image is a 3D representation of CD11b fluorescence intensity for selected cells, analyzed in ImageJ In FIG. 5B, data shown are mean±SEM from >40 cells per condition and from >3 independent experiments for each condition. ***p<0.0001, ns=not significant."}, "[2]": {"tested_on": "MAPK signaling (pERK, pJNK) in K562 WT cells", "assay": "Western blotting of pERK and pJNK in K562 WT cells", "assay_type": "cell-based, human", "details": "CD11b/CD18 ligation with fibrinogen, all conditions", "protocol": "K562 WT cells were incubated with LA1, LA2, LA15 (15 μM), or fibrinogen (200 μg) in serum-free medium for 1 hour at 37° C. Cell lysates were resolved on 4-12% NuPAGE Bis-Tris SDS-PAGE gels using MES running buffer and transferred to a polyvinylidene difluoride (PVDF) membrane (ThermoScientific) using established protocols. Membranes were incubated with a 1:1,000 dilution of the anti-phospho-protein antibodies (anti phospho-p44/42 MAPK (pERK1/2) antibody (Thr202/Tyr204, Cell Signaling) or anti-phospho-SAPK/JNK (pJNK) antibody (Thr183/Tyr185, Cell Signaling #81E11)), or with an antibody against either total ERK1/2 (p44/42 MARK (Erk1/2), Cell Signaling #137F5) or total JNK (SAPK/JNK, Cell Signaling #56G8) and developed according to the manufacturer's instructions (ThermoScientific). Proteins were quantified by densitometry using ImageJ software. […]\nSecond, an effect of integrin ligation, macro clustering and redistribution in the plasma membrane is the triggering of outside-in intracellular signaling in cells via various MAPKs. […] In FIGS. 6A-6B, immunoblot results from two independent experiments were quantified using ImageJ software and ratio of phosphorylated protein to total protein was determined. Histograms showing this quantitation for each set are also shown. […] In FIGS. 6C-6D, immunoblot results from two independent experiments were quantified and are also shown, as in 6A and 6B."}},
  "data": [
    {"compound": "CCCCCCCCCCCCCC(=O)O[C@@H]1[C@@H](C)[C@@]2(O)[C@@H](C=C(CO)C[C@]3(O)C(=O)C(C)=C[C@@H]23)[C@@H]2C(C)(C)[C@]12OC(C)=O", "note": "[PMA, phorbol-12-myristate-13-acetate, reference compound]", "values": [
      {"measurement": "migration of macrophages into the wound area upon stimulation", "setting": "[1]", "result": "significantly induced the migration of macrophages"}
    ]},
    {"compound": "CCOCc1nc2c(N)nc3ccccc3c2n1CC(C)(C)O", "note": "[R848, reference compound]", "values": [
      {"measurement": "TNF-α release, stimulus alone vs macrophages alone", "setting": "Human macrophages", "result": "significantly stimulated TNF-α release"}
    ]},
    {"compound": "CC(=O)O[C@H]1C(=O)[C@@]2(C)[C@H]([C@H](OC(=O)c3ccccc3)[C@]3(O)C[C@H](OC(=O)[C@H](O)[C@@H](NC(=O)c4ccccc4)c4ccccc4)C(C)=C1C3(C)C)[C@]1(OC(C)=O)CO[C@@H]1C[C@@H]2O", "note": "[Taxol, reference compound]", "values": [
      {"measurement": "rate of tumor growth, single agent", "setting": "Cl66 cells", "result": "significant reduction in the rate of tumor growth"}
    ]},
    {"compound": "CC(=O)O[C@@]12CO[C@@H]1C[C@H](O)[C@@]1(C)C(=O)[C@H](O)C3=C(C)[C@@H](OC(=O)[C@H](O)[C@@H](NC(=O)OC(C)(C)C)c4ccccc4)C[C@@](O)([C@@H](OC(=O)c4ccccc4)[C@H]21)C3(C)C", "note": "[docetaxel]", "values": [
      {"measurement": "incidence rate of bradycardia", "setting": "patients", "result": 1.7, "unit": "%"}
    ]},
    {"compound": "fibrinogen [reference compound]", "values": [
      {"measurement": "CD11b/CD18 macro clustering on cell surface", "setting": "CD11b/CD18", "result": "significant CD11b/CD18 macro clustering"},
      {"measurement": "phosphorylated ERK (pERK) and phosphorylated JNK (pJNK)", "setting": "[2]", "result": "high levels of both pERK and pJNK"}
    ]}
  ]
}
